# From ChEMBL document CHEMBL3885881, “DrugMatrix”
# Species: Rattus norvegicus
# Assay: DrugMatrix - Regimen: Daily Repeat
# Assay type: toxicity, organism-based, Sprague-Dawley
# Set-up: regimen Daily Repeat, gender Male, age 6-8 weeks
# Details: in vivo, po, route oral GAVAGE, vehicle .5 % CMC; for ALBUMIN / ALKALINE PHOSPHATASE / ASPARTATE AMINOTRANSFERASE / BLOOD UREA NITROGEN / CARBON DIOXIDE / CHLORIDE / CHOLESTEROL / CREATINE PHOSPHOKINASE / CREATININE / GLUCOSE / LACTATE DEHYDROGENASE / PHOSPHORUS / POTASSIUM / SODIUM / TOTAL BILIRUBIN / TOTAL PROTEIN / URIC ACID / ALANINE AMINOTRANSFERASE: tissue Plasma; for ABSOLUTE BASOPHIL / ABSOLUTE EOSINOPHIL / ABSOLUTE LYMPHOCYTE / ABSOLUTE SEGMENTED NEUTROPHIL / BASOPHIL / EOSINOPHIL / ERYTHROCYTE COUNT / HEMATOCRIT / LEUKOCYTE COUNT / LYMPHOCYTE / MEAN CORPUSCULAR HEMOGLOBIN / MEAN CORPUSCULAR HEMOGLOBIN CONCENTRATION / MEAN CORPUSCULAR VOLUME / MONOCYTE / NEUTROPHIL / NUCLEATED RED BLOOD CELLS / PLATELET COUNT: tissue Blood
# [1] = 3 mg/kg, 120 h, dose level Low, time 5 day
# [2] = 250 mg/kg, 72 h, dose level M1, time 3 day
# [3] = 250 mg/kg, 120 h, dose level M1, time 5 day
# [4] = 500 mg/kg, 72 h, dose level High, time 3 day
smiles,measurement,setting,value
CCN(CC)CCOc1ccc(/C(=C(/Cl)c2ccccc2)c2ccccc2)cc1 [ENCLOMIPHENE],ALBUMIN,[1],4.23 G/DL
same,ALKALINE PHOSPHATASE,[1],396 u/L
same,ASPARTATE AMINOTRANSFERASE,[1],74.33 u/L
same,BLOOD UREA NITROGEN,[1],15 mg/dL
same,CARBON DIOXIDE,[1],26 mmol/L
same,CHLORIDE,[1],102.33 MEQ/L
same,CHOLESTEROL,[1],19 mg/dL
same,CREATINE PHOSPHOKINASE,[1],301 u/L
same,CREATININE,[1],0.17 mg/dL
same,GLUCOSE,[1],167.33 mg/dL
same,LACTATE DEHYDROGENASE,[1],159.33 u/L
same,PHOSPHORUS,[1],11.77 mg/dL
same,POTASSIUM,[1],6.49 MEQ/L
same,SODIUM,[1],144.63 MEQ/L
same,TOTAL BILIRUBIN,[1],0.13 mg/dL
same,TOTAL PROTEIN,[1],6.17 G/DL
same,URIC ACID,[1],1.3 mg/dL
same,ABSOLUTE BASOPHIL,[2],0 CELLS/uL
same,ABSOLUTE EOSINOPHIL,[2],257 CELLS/uL
same,ABSOLUTE LYMPHOCYTE,[2],8100 CELLS/uL
same,ABSOLUTE SEGMENTED NEUTROPHIL,[2],6509.67 CELLS/uL
same,BASOPHIL,[2],0%
same,EOSINOPHIL,[2],1.67%
same,ERYTHROCYTE COUNT,[2],6.81 x10E6/uL
same,HEMATOCRIT,[2],42.67%
same,LEUKOCYTE COUNT,[2],14.87 x10E3/uL
same,LYMPHOCYTE,[2],63%
same,MEAN CORPUSCULAR HEMOGLOBIN,[2],22.93 pg
same,MEAN CORPUSCULAR HEMOGLOBIN CONCENTRATION,[2],36.33 G/DL
same,MEAN CORPUSCULAR VOLUME,[2],63.07 fL
same,MONOCYTE,[2],0%
same,NEUTROPHIL,[2],35.33%
same,NUCLEATED RED BLOOD CELLS,[2],0 /100WBC
same,PLATELET COUNT,[2],1358.67 x10E3/uL
same,ALANINE AMINOTRANSFERASE,[2],103.33 u/L
same,ALBUMIN,[2],3.87 G/DL
same,ALKALINE PHOSPHATASE,[2],393.33 u/L
same,ASPARTATE AMINOTRANSFERASE,[2],112.33 u/L
same,BLOOD UREA NITROGEN,[2],17 mg/dL
same,CARBON DIOXIDE,[2],21.67 mmol/L
same,CHLORIDE,[2],104.67 MEQ/L
same,CHOLESTEROL,[2],20.67 mg/dL
same,CREATINE PHOSPHOKINASE,[2],596.67 u/L
same,CREATININE,[2],0.17 mg/dL
same,GLUCOSE,[2],156.67 mg/dL
same,LACTATE DEHYDROGENASE,[2],305 u/L
same,PHOSPHORUS,[2],12.63 mg/dL
same,POTASSIUM,[2],6.02 MEQ/L
same,SODIUM,[2],145 MEQ/L
same,TOTAL BILIRUBIN,[2],0.0667 mg/dL
same,TOTAL PROTEIN,[2],5.43 G/DL
same,URIC ACID,[2],2.13 mg/dL
same,ABSOLUTE BASOPHIL,[3],0 CELLS/uL
same,ABSOLUTE EOSINOPHIL,[3],97.33 CELLS/uL
same,ABSOLUTE LYMPHOCYTE,[3],15789.33 CELLS/uL
same,ABSOLUTE SEGMENTED NEUTROPHIL,[3],1980 CELLS/uL
same,BASOPHIL,[3],0%
same,EOSINOPHIL,[3],0.67%
same,ERYTHROCYTE COUNT,[3],7.29 x10E6/uL
same,HEMATOCRIT,[3],44.07%
same,LEUKOCYTE COUNT,[3],17.87 x10E3/uL
same,LYMPHOCYTE,[3],88.33%
same,MEAN CORPUSCULAR HEMOGLOBIN,[3],22.33 pg
same,MEAN CORPUSCULAR HEMOGLOBIN CONCENTRATION,[3],36.8 G/DL
same,MEAN CORPUSCULAR VOLUME,[3],60.6 fL
same,MONOCYTE,[3],0%
same,NEUTROPHIL,[3],11%
same,NUCLEATED RED BLOOD CELLS,[3],0 /100WBC
same,PLATELET COUNT,[3],1119 x10E3/uL
same,ALANINE AMINOTRANSFERASE,[3],135 u/L
same,ALBUMIN,[3],3.8 G/DL
same,ALKALINE PHOSPHATASE,[3],350 u/L
same,ASPARTATE AMINOTRANSFERASE,[3],128 u/L
same,BLOOD UREA NITROGEN,[3],17.67 mg/dL
same,CARBON DIOXIDE,[3],25.33 mmol/L
same,CHLORIDE,[3],104.33 MEQ/L
same,CHOLESTEROL,[3],27.67 mg/dL
same,CREATINE PHOSPHOKINASE,[3],820.67 u/L
same,CREATININE,[3],0.15 mg/dL
same,GLUCOSE,[3],142.67 mg/dL
same,LACTATE DEHYDROGENASE,[3],135 u/L
same,PHOSPHORUS,[3],11.73 mg/dL
same,POTASSIUM,[3],6.75 MEQ/L
same,SODIUM,[3],147.17 MEQ/L
same,TOTAL BILIRUBIN,[3],0.1 mg/dL
same,TOTAL PROTEIN,[3],5.37 G/DL
same,URIC ACID,[3],1.8 mg/dL
same,ABSOLUTE BASOPHIL,[4],0 CELLS/uL
same,ABSOLUTE EOSINOPHIL,[4],68.67 CELLS/uL
same,ABSOLUTE LYMPHOCYTE,[4],11139 CELLS/uL
same,ABSOLUTE SEGMENTED NEUTROPHIL,[4],1343.67 CELLS/uL
same,BASOPHIL,[4],0%
same,EOSINOPHIL,[4],0.67%
same,ERYTHROCYTE COUNT,[4],6.43 x10E6/uL
same,HEMATOCRIT,[4],40.43%
same,LEUKOCYTE COUNT,[4],12.83 x10E3/uL
same,LYMPHOCYTE,[4],86.67%
same,MEAN CORPUSCULAR HEMOGLOBIN,[4],24.7 pg
same,MEAN CORPUSCULAR HEMOGLOBIN CONCENTRATION,[4],39.23 G/DL
same,MEAN CORPUSCULAR VOLUME,[4],62.87 fL
same,MONOCYTE,[4],2%
same,NEUTROPHIL,[4],10.67%
same,NUCLEATED RED BLOOD CELLS,[4],0 /100WBC
same,PLATELET COUNT,[4],1271 x10E3/uL
same,ALANINE AMINOTRANSFERASE,[4],113.33 u/L
same,ALBUMIN,[4],3.63 G/DL
same,ALKALINE PHOSPHATASE,[4],288.33 u/L
same,ASPARTATE AMINOTRANSFERASE,[4],124 u/L
same,BLOOD UREA NITROGEN,[4],11 mg/dL
same,CARBON DIOXIDE,[4],32 mmol/L
same,CHLORIDE,[4],105.33 MEQ/L
same,CHOLESTEROL,[4],25.33 mg/dL
same,CREATINE PHOSPHOKINASE,[4],861 u/L
same,CREATININE,[4],0.1 mg/dL
same,GLUCOSE,[4],141 mg/dL
same,LACTATE DEHYDROGENASE,[4],193.67 u/L
same,PHOSPHORUS,[4],12.93 mg/dL
same,POTASSIUM,[4],5.84 MEQ/L
same,SODIUM,[4],146.17 MEQ/L
same,TOTAL BILIRUBIN,[4],0.1 mg/dL
same,TOTAL PROTEIN,[4],5.03 G/DL
same,URIC ACID,[4],1.43 mg/dL
